Results taken from article PMC9917735, “Optimization of the Hemolysis Assay for the Assessment of Cytotoxicity” (International Journal of Molecular Sciences, 2023).
Values after ≈ are worked out from the molar mass of the structure shown. Read-outs that look alike come from different tables or passages of the source.

Experiments:
E. coli = conditions: E. coli
human whole blood = conditions: for Calculated hemolysis ratio: human whole blood, peptides 100 μM, 60 min 37 °C, neg. PBS, 3 x 2 replicates
[1] = tested on: washed human erythrocytes; assay: Hemolysis assay, washed human erythrocytes
[2] = tested on: washed human erythrocytes; assay: Flow cytometry of treated erythrocytes with live/dead amine-reactive stain; format: cell-based; conditions: washed human erythrocytes treated 60 minutes, AMPs 100 μM, amine-reactive dye 488, flow cytometry 533/30 nm
Protocol: Briefly, a 1% washed erythrocyte solution was diluted to ~10^5 cells/mL and 0.4% Trypan blue (1:1 ratio) was added before 10 μL of the stained cell suspension was added to the Countess cell counting chamber slide. After a 30 s incubation, the slide was inserted into the instrument for automatic cell counting.
The Countess II automated cell counter (see above) was used to adjust the negative control sample to ~10^5 cells/mL and to subsequently dilute all samples by the same factor. Then, 0.5 μL of live/dead amine-reactive dye 488 (Fisher Scientific, Waltham, MA, USA) was added to 0.5 mL cell suspension and incubated for 30 min protected from light. Subsequently, the samples were washed twice with PBS pH 7 containing 1% bovine serum albumin (BSA), and finally resuspended in PBS pH 7 with 1% BSA. Cells were next counted, and the fluorescence measured using the 533/30 nm filter in an Accuri C6 flow cytometer (BD Biosciences, Franklin Lakes, NJ, USA).

rabbit whole blood = conditions: for Hemolysis ratio: rabbit whole blood, AMPs 100 μM, 1 hour 37 °C, 3 x 2 replicates
From the text: (§1) Cytotoxicity studies are important during characterization of novel compounds or materials intended for interactions within human biological systems in vivo. Evaluation of the extent to which the compound induces disruption of the membrane of erythrocytes (red blood cells), thereby causing release of cellular content, often constitutes an initial step in such cytotoxicity assessments. The assay used in this context is generally referred to as the hemolysis assay, which has the advantages of being cheap, accessible, and simple to perform. Blood is drawn from a human or an animal, and next, the washed erythrocytes are incubated together with the compound or material under investigation. If the compound causes hemolysis, hemoglobin (along with other cellular constituents) will be released into the supernatant.
(§2) Blood from mice, rats, and rabbits was provided by the Department of Comparative Medicine at Oslo University Hospital (Marianne Aannestad). For mice and rats, the blood was collected from the heart by using 25 G and 21 G needles, respectively, whereas for rabbits, the blood was collected by free bleed through the ear using a yellow neoflon (24 G). All animals were wild type and anesthetized prior to the procedure.
(§3) All blood was collected in Lithium Heparin tubes 4 mL (Greiner Bio-One, Kremsmünster, Austria) or Coagulation sodium citrate 3.2% tubes 3 mL (Greiner Bio-One).
(§4) AMP 2 contained an N-terminal hexanoic acid moiety, whereas all peptides contained amidated C-termini. These three peptides were synthesized by Genscript Inc. (Piscataway, NJ, USA), and stock solutions of 1 mg/mL were made from the purchased powders. […] All peptides were diluted to yield a 100 μM final concentration in the hemolysis assays.
(§5) Triton X-100 (T8787) and Tween-20 (P2287) detergents were purchased from Sigma Aldrich and diluted to obtain 10% stock solutions by weighing (w/v). A sodium Dodecyl Sulfate (SDS) 10% solution was purchased from Invitrogen (Waltham, MA, USA, 15553027). All subsequent dilutions annotated in figures were made from these stocks.
(§6) As soon as possible after phlebotomy, the blood samples were centrifuged at 1700× g for 5 min. The supernatant was removed by aspiration and 2 mL of PBS pH 7 was added. The washing step was repeated three times or until the supernatant was clear. After final aspiration, the remaining pellet was diluted 1:100 in PBS pH 7 to obtain a 1% erythrocyte suspension (or 1:100, 1:50, and 1:20 for assays testing the effect of erythrocyte concentration). For experiments using whole blood, the washing steps were not performed, but downstream experimentation was identical. For experiments performed with 96-well plates, 50 μL of test compound, water, or detergent were mixed with 50 μL of blood sample (1% erythrocyte suspension or whole blood). For experiments using larger volumes, 250 μL of test compound, water, or detergent were mixed with 250 μL blood sample in an Eppendorf tube. Samples were subsequently incubated at 37 °C for 60 min (or 15, 30, 60, 90, or 120 min for assays evaluating the effect of incubation time). After incubation, the plates/tubes were centrifuged at 1700× g for 5 min, and then 50 μL of the supernatants were transferred to transparent, flat-bottom 96-well plates (Anicrin, A013418). Finally, absorption was measured at 405, 530, and 570 nm in a Victor Nivo Multimode microplate reader (Perkin Elmer, Waltham, MA, USA).

mouse erythrocytes = conditions: AMPs 100 μM, 1 hour 37 °C, pos. 10% Triton X-100, neg. PBS, 3 x 2 replicates
From the text: as §1, §2, §3, §4, §5, §6

rat erythrocytes = conditions: AMPs 100 μM, 1 hour 37 °C, pos. 10% Triton X-100, neg. PBS, 3 x 2 replicates
From the text: as §1, §2, §3, §4, §5, §6

rabbit erythrocytes = conditions: AMPs 100 μM, 1 hour 37 °C, pos. 10% Triton X-100, neg. PBS, 3 x 2 replicates
From the text: as §1, §2, §3, §4, §5, §6

With `CC[C@H](C)[C@H](NC(=O)[C@H](CC(C)C)NC(=O)[C@H](CCC(N)=O)NC(=O)[C@H](CC(C)C)NC(=O)[C@@H](NC(=O)[C@H](C)NC(=O)[C@H](CCCCN)NC(=O)[C@H](CCCCN)NC(=O)[C@H](CCCCN)NC(=O)[C@H](CCCCN)NC(=O)[C@H](CCCCN)NC(=O)[C@@H](NC(=O)[C@H](CCCNC(=N)N)NC(=O)[C@H](CCCCN)NC(=O)[C@@H](NC(=O)[C@H](CC(C)C)NC(=O)[C@H](Cc1ccc(O)cc1)NC(=O)[C@H](CCCNC(=N)N)NC(=O)CNC(=O)[C@H](CC(=O)O)NC(=O)[C@@H](NC(=O)[C@@H](N)CCSC)[C@@H](C)O)[C@@H](C)CC)C(C)C)C(C)C)C(=O)N[C@@H](CC(C)C)C(=O)N[C@@H](CCCCN)C(=O)N[C@@H](Cc1ccccc1)C(=O)N[C@@H](CC(C)C)C(N)=O` [AMP 3] the “Minimum inhibitory concentration (E. coli)” value (E. coli) was 4 µM (≈ 12.5 µg/mL), the Calculated hemolysis ratio (human whole blood; OD 405 nm (signal saturated), pos. 10% SDS) was 15.5 ± 7.1% and the Calculated hemolysis ratio (human whole blood; OD 530 nm, pos. 10% SDS) was 2.7%. The Calculated hemolysis ratio (human whole blood; OD 570 nm, pos. 10% Triton X-100 (table title; text says 10% SDS)) was 3.8%, the “Fold reduction in HR in human whole blood in comparison with washed erythrocytes measured at 405 nm” value (human whole blood; whole blood HR with 10% SDS as positive control (Table 5) vs washed erythrocytes (Table 6), 100 μM) was over 27 fold and the Calculated hemolysis ratio ([1]; 1% washed human erythrocytes, OD 530 nm, peptides 100 μM, 60 min 37 °C, pos. 10% Triton X-100, neg. PBS, 3 x 2 replicates) was 68.4 ± 15%. For the same molecule, the Calculated hemolysis ratio ([1]; 1% washed human erythrocytes, OD 570 nm, peptides 100 μM, 60 min 37 °C, pos. 10% Triton X-100, neg. PBS, 3 x 2 replicates) was 65.7 ± 11.6%, the “Calculated Hemolysis (%)” value ([1]; 2% pooled human erythrocytes, AMPs 100 µM, 60 min 37 °C, 405 nm, pos. 10% Triton X-100, neg. PBS, 3 x 2 replicates) was 41.1 ± 3.2% and the “Calculated Hemolysis (%)” value ([1]; 5% pooled human erythrocytes, AMPs 100 µM, 60 min 37 °C, 405 nm, pos. 10% Triton X-100, neg. PBS, 3 x 2 replicates) was 45.7 ± 8.2%. For the same molecule, the Calculated hemolysis ratio ([1]; Table 1: 1% human erythrocytes, 100 µM, 60 min 37 °C, OD 405 nm, pos. 10% Triton X-100, neg. PBS, mean ± SD, 3 experimental x 2 technical replicates) was 37 ± 5.1%, the Calculated hemolysis ratio ([1]; Table 2: pooled blood from all 10 individuals, 1% erythrocytes, AMPs 100 µM, 60 min 37 °C, 405 nm, pos. 10% Triton X, neg. PBS, 3 x 2 replicates) was 45.4 ± 4.8% and the “Calculated Hemolysis (%)” value ([1]; Table 3: 1% pooled human erythrocytes, AMPs 100 µM, 60 min 37 °C, 405 nm, pos. 10% Triton X-100, neg. PBS, 3 x 2 replicates) was 45.4 ± 4.8%. The Calculated hemolysis ratio ([1]; Table 4: incubation 60 min, 37 °C, 1% human erythrocytes, AMPs 100 µM, 405 nm, pos. 10% Triton X-100, neg. PBS, 3 biological x 2 technical replicates) was 64.6 ± 6.8%, the Calculated hemolysis ratio ([1]; Table 6: 1% washed human erythrocytes, OD 405 nm, peptides 100 μM, 60 min 37 °C, pos. 10% Triton X-100, neg. PBS, 3 x 2 replicates) was 73.5 ± 14.4% and the Calculated hemolysis ratio ([1]; human individual # 1, 1% erythrocytes, AMPs 100 µM, 60 min 37 °C, 405 nm, pos. 10% Triton X, neg. PBS, 3 x 2 replicates) was 36.4 ± 5%. It also gave a Calculated hemolysis ratio ([1]; human individual # 2, 1% erythrocytes, AMPs 100 µM, 60 min 37 °C, 405 nm, pos. 10% Triton X, neg. PBS, 3 x 2 replicates) of 39.3 ± 6%, a Calculated hemolysis ratio ([1]; human individual # 3, 1% erythrocytes, AMPs 100 µM, 60 min 37 °C, 405 nm, pos. 10% Triton X, neg. PBS, 3 x 2 replicates) of 49.4 ± 8.5% and a Calculated hemolysis ratio ([1]; human individual # 4, 1% erythrocytes, AMPs 100 µM, 60 min 37 °C, 405 nm, pos. 10% Triton X, neg. PBS, 3 x 2 replicates) of 43.6 ± 4.2%. For the same molecule, the Calculated hemolysis ratio ([1]; human individual # 5, 1% erythrocytes, AMPs 100 µM, 60 min 37 °C, 405 nm, pos. 10% Triton X, neg. PBS, 3 x 2 replicates) was 38.3 ± 7.3%, the Calculated hemolysis ratio ([1]; human individual # 6, 1% erythrocytes, AMPs 100 µM, 60 min 37 °C, 405 nm, pos. 10% Triton X, neg. PBS, 3 x 2 replicates) was 45.7 ± 6.4% and the Calculated hemolysis ratio ([1]; human individual # 7, 1% erythrocytes, AMPs 100 µM, 60 min 37 °C, 405 nm, pos. 10% Triton X, neg. PBS, 3 x 2 replicates) was 37.7 ± 6.9%. For the same molecule, the Calculated hemolysis ratio ([1]; human individual # 8, 1% erythrocytes, AMPs 100 µM, 60 min 37 °C, 405 nm, pos. 10% Triton X, neg. PBS, 3 x 2 replicates) was 45.6 ± 9.2%, the Calculated hemolysis ratio ([1]; human individual # 9, 1% erythrocytes, AMPs 100 µM, 60 min 37 °C, 405 nm, pos. 10% Triton X, neg. PBS, 3 x 2 replicates) was 42.1 ± 4.7% and the Calculated hemolysis ratio ([1]; human individual # 10, 1% erythrocytes, AMPs 100 µM, 60 min 37 °C, 405 nm, pos. 10% Triton X, neg. PBS, 3 x 2 replicates) was 50.3 ± 4.6%. The Calculated hemolysis ratio ([1]; incubated in polypropylene tubes, 1% washed human erythrocytes, peptides 100 μM, 60 min 37 °C, 405 nm, pos. 10% Triton X-100, neg. PBS, 3 x 2 replicates) was 57.5 ± 13.2%, the Calculated hemolysis ratio ([1]; incubated in polystyrene tubes, 1% washed human erythrocytes, peptides 100 μM, 60 min 37 °C, 405 nm, pos. 10% Triton X-100, neg. PBS, 3 x 2 replicates) was 66.7 ± 12.7% and the Calculated hemolysis ratio ([1]; incubation 15 min, 37 °C, 1% human erythrocytes, AMPs 100 µM, 405 nm, pos. 10% Triton X-100, neg. PBS, 3 biological x 2 technical replicates) was 54.8 ± 8.2%. For the same molecule, the Calculated hemolysis ratio ([1]; incubation 30 min, 37 °C, 1% human erythrocytes, AMPs 100 µM, 405 nm, pos. 10% Triton X-100, neg. PBS, 3 biological x 2 technical replicates) was 56.6 ± 7.4%, the Calculated hemolysis ratio ([1]; incubation 90 min, 37 °C, 1% human erythrocytes, AMPs 100 µM, 405 nm, pos. 10% Triton X-100, neg. PBS, 3 biological x 2 technical replicates) was 63 ± 4.5% and the Calculated hemolysis ratio ([1]; incubation 120 min, 37 °C, 1% human erythrocytes, AMPs 100 µM, 405 nm, pos. 10% Triton X-100, neg. PBS, 3 biological x 2 technical replicates) was 74.3 ± 21.1%. The “Observed hemolytic properties (qualitative)” value ([1]; reason for choice of the AMPs) was “high”, the Calculated hemolysis ratio ([1]; total incubation volume 100 μL, 1% washed human erythrocytes, peptides 100 μM, 60 min 37 °C, 405 nm, pos. 10% Triton X-100, neg. PBS, 3 x 2 replicates) was 66.7 ± 12.7% and the Calculated hemolysis ratio ([1]; total incubation volume 500 μL, 1% washed human erythrocytes, peptides 100 μM, 60 min 37 °C, 405 nm, pos. 10% Triton X-100, neg. PBS, 3 x 2 replicates) was 72.7 ± 10.4%. The “Fluorescence intensity per cell of remaining intact cells (live/dead stain)” value [2] was “surprisingly high fluorescence intensity measurements per cell”, the “Fold decrease of hemolytic effect in rabbit whole blood vs washed rabbit erythrocytes” value (rabbit whole blood; cf. Tables S3 and S4, 100 μM) was 4 fold and the Hemolysis ratio (rabbit whole blood; OD 530 nm, pos. 10% SDS, neg. PBS) was 13.2 +/- 3%. For the same molecule, the Hemolysis ratio (rabbit whole blood; OD 570 nm, pos. 10% Triton X-100, neg. PBS) was 13.1 +/- 3.2%, the Hemolysis ratio (mouse erythrocytes; Table S4: washed mouse erythrocytes, OD 405 nm) was 77.1 +/- 3.8% and the Hemolysis ratio (mouse erythrocytes; washed mouse erythrocytes, OD 530 nm) was 71.1 +/- 3.2%. The Hemolysis ratio (mouse erythrocytes; washed mouse erythrocytes, OD 570 nm) was 47.7 +/- 2.5%, the Hemolysis ratio (rat erythrocytes; Table S4: washed rat erythrocytes, OD 405 nm) was 29.5 +/- 8.2% and the Hemolysis ratio (rat erythrocytes; washed rat erythrocytes, OD 530 nm) was 30.7 +/- 13.1%. For the same molecule, the Hemolysis ratio (rat erythrocytes; washed rat erythrocytes, OD 570 nm) was 31.1 +/- 12.7%, the Hemolysis ratio (rabbit erythrocytes; Table S4: washed rabbit erythrocytes, OD 405 nm) was 53.2 +/- 7.4% and the Hemolysis ratio (rabbit erythrocytes; washed rabbit erythrocytes, OD 530 nm) was 50.1 +/- 7.7%. The Hemolysis ratio (rabbit erythrocytes; washed rabbit erythrocytes, OD 570 nm) was 52.7 +/- 8.2%.
